{"source": "patent US7910624B1", "about": "“Compositions for the treatment of blood disorders” (The Trustees of Boston University, priority 1995, dated 2011)", "key": {"[1]": {"test_system": "system A transport in K562 cells and nucleated erythroblasts from fetal liver", "test": "System A (neutral amino acid) transport, 3H-MAIB uptake", "assay_type": "cell-based, human", "conditions": "1 hour incubation; FIG. 12", "procedure": "Inhibition of nutrient uptake is undesirable for treatment of anemias. Methyl aminoisobutyric acid (MAIB) labeled with tritium (^3H) is normally taken up by system A amino acid transport. Cold (unlabeled) compounds were added to cultures containing ^3H-MAIB and incubated for 1 hour. Cells were harvested and the amount of ^3H taken up by cells was quantitated by scintillation counting."}, "anemic juvenile baboons": {"test_system": "anemic juvenile baboons", "test": "In vivo reticulocyte proliferation and globin expression in phlebotomized anemic baboons", "parameters": "species or system baboon", "procedure": "Experiments were performed to determine if administration of the chemical compositions could induce fetal globin gene expression in an in vivo model similar to humans (S. P. Perrin et al., Brit. J. Haematol. 88:555-61, 1994). Briefly, chemicals were prepared as sterile pharmaceutical solutions in pH adjusted sterile water. A variety of chemical compositions were administered sequentially to some baboons. After administration of one compound, a wash-out period with no compound administration was maintained until reticulocytes returned to base line prior to administration of the next compound. This was done, at least partly, to compare the magnitude of response which occurred within the same individual animal to different compounds.\nBriefly, juvenile female baboons (2 years old) were catheterized with arterial and venous catheters and phlebotomized gradually every day to maintain a moderate anemia of 7.0 to 7.5 grams hemoglobin/dl. Fetal reticulocytes, the newly produced red blood cells containing fetal globin, were assayed using a monoclonal antibody against fetal globin (HbF) as described by G. Dover et al. (Blood 67:735-38, 1986). Briefly, blood was stained with two antibodies, one specific for reticulocytes and another against fetal globin protein. The amount of antibody bound cells was determined by FACS analysis. Globin chain synthesis was assayed as described by J. B. Clegg et al. (J. Mol. Biol. 19:91-108, 1966). Briefly, reticulocytes were radio-labeled with ^3H-leucine which was incorporated in equal proportions into actively synthesized globin chains. After incubation in leucine-free media, cells were washed, and globin proteins were separated and purified by column chromatography. Radioactivity incorporated into each peak is compared and the ratios of gamma to gamma plus beta globin calculated. Each animal served as its own control with baseline monitoring assays performed for 4-6 weeks before any drug was administered. Phlebotomy was continued daily, so that peripheral HbF levels in the animals were not considered to be accurate over the short treatment time-frames and were not monitored. Safety monitoring was performed by frequent physical examinations, quantitation of food eaten, activity and frequent chemistry and hematology monitoring. Complete blood counts were assayed before, during and after treatment. Results presented were not adjusted to account for the daily phlebotomy."}, "[2]": {"test_system": "proximal promoter of the gamma globin gene in K562 cells", "test": "Gamma globin promoter-neomycin (NEO) transfection, colony survival in G418", "assay_type": "cell-based, human", "conditions": "1 mM, 8 weeks", "procedure": "Gamma globin promoter-neomycin transfection experiments were performed to determine if compounds act by inducing an increase in activity from the proximal promoter of the gamma globin gene. Constructs containing 61 by of the proximal gamma globin promoter were linked to the reporter gene for neomycin phosphotransferase (NEO) and transfected into permissive K562 cells by electroporation. After 18 hours, transfected cells were passed at 10^3 cells per well into RPMI media containing G418 (neomycin), which kills all mammalian cells unless the gene for NEO is expressed. Phenoxyacetic acid and thiophenoxyacetic acid were added to some of the cells plated into the RPMI/G418 media at concentrations of 1 mM. Cultures were incubated for 8 weeks with media changes performed as needed. Colonies which survived and grew in the presence of G418 were scored and the number of such colonies was compared to those generated when the cells were plated into G418 media without the test compounds. No colonies in the 24 wells survived in the absence of compounds. There was a greater than 6-fold (>600%) increase in proportions of colonies surviving the presence of phenoxyacetic acid (6/24 wells) and a three-fold (300%) increase in survival in the presence of thiophenoxyacetic acid (3/24 wells)."}, "[3]": {"test_system": "erythroid progenitor cells cultured from human cord blood", "test": "Fetal globin expression in human cell cultures (3H-leucine labelled globin chains, densitometry)", "assay_type": "cell-based", "conditions": "for Gamma Increase: Exp. B, 12-13 days", "procedure": "Compositions were tested for activity in inducing fetal globin expression and protein production in erythroid progenitor cells cultured from human cord blood and analyzed as described by S. P. Perrine et al. (Blood 74: 454-60, 1989). Briefly, mononuclear cells were cultured in IMDM with 30% fetal calf serum and 2 units erythropoietin per ml to induce erythroid differentiation. Colonies were harvested on day 12-13, incubated with radio-labelled (^3H) leucine, and further incubated in leucine-free media, still in the presence of compounds, overnight. Globin composition in the erythroid cells was analyzed by laser densitometry of electrophoretically separated globin chains stained with Coomassie blue, and by autoradiography. Treated cells were incubated for 12-13 days (Table 2, Experiments A and B) or overnight (Table 2, Experiment C) in the presence of the indicated compounds and compared to untreated control cells cultured from the same human subject."}, "[4]": {"test_system": "Human erythroleukemia cells", "test": "Fetal globin mRNA in erythroleukemia cells by primer extension", "assay_type": "cell-based", "conditions": "1.0 mM, 4 days", "procedure": "Compounds were tested for increased expression of the human globin genes in human erythroid cells. In addition, as the cell line being tested is a tumor cell line, the assay determines if differentiation, a growth inhibitory effect on cancer cells, is induced by the compounds tested. Human erythroleukemia cells were cultured in RPMI media with 10% fetal calf serum alone or with treatment with various compounds for 4 days. Globin mRNA was quantitated by primer extension analysis. Fetal globin mRNA was compared to the amount of fetal globin mRNA produced in untreated cells during the same culture period. The quantitation was expressed as a percent of alpha globin mRNA which was constant. Results are expressed proportional to α-globin mRNA (Table 3)."}}}
{"smiles": "CC(Cc1ccccc1)C(=O)O", "note": "(stereo not drawn) [α-methyl hydrocinnamic acid]", "values": [{"measurement": "system A transport of amino acids (3H-MAIB uptake)", "setting": "[1]", "result": "caused no significant inhibition and actually increased uptake of nutrients into cells"}, {"measurement": "rise of total hemoglobin", "setting": "anemic juvenile baboons; baboon, infused 8 h/day, 5 days: 500 mg/kg 2 days, 700 mg/kg 2 days, 1,000 mg/kg 1 day, over 3 days", "result": 1.5, "unit": "grams/dl"}, {"measurement": "red blood cell count after treatment", "setting": "anemic juvenile baboons; same regimen (500/700/1,000 mg/kg, 5 days), rose from 2.28", "result": "3.53 ×10^6 red blood cells per microliter"}, {"measurement": "total number of reticulocytes after treatment", "setting": "anemic juvenile baboons; same regimen (500/700/1,000 mg/kg, 5 days), rose from 5.6%", "result": 11, "unit": "%"}, {"measurement": "total hemoglobin after treatment", "setting": "anemic juvenile baboons; same regimen (500/700/1,000 mg/kg, 5 days), rose from 6.4", "result": 7.9, "unit": "grams/dl"}, {"measurement": "packed red blood cell volume after treatment", "setting": "anemic juvenile baboons; same regimen (500/700/1,000 mg/kg, 5 days), rose from 19.5%", "result": "31.2 % of total blood volume"}, {"measurement": "platelet count after treatment", "setting": "anemic juvenile baboons; same regimen (500/700/1,000 mg/kg, 5 days), rose from 26.7", "result": "46.8 ×10^4 cells/μl"}, {"measurement": "total fetal globin synthesis after treatment", "setting": "anemic juvenile baboons; second baboon, 500 mg/kg 8 h, 700 mg/kg 8 h, 700 mg/kg 2, 4 and 6 h, after 5 days, from 4.0%", "result": 10.8, "unit": "%"}, {"measurement": "rise of total hemoglobin", "setting": "anemic juvenile baboons; second baboon, 500-700 mg/kg, 5 days", "result": 1.4, "unit": "grams"}, {"measurement": "red blood cell counts after treatment", "setting": "anemic juvenile baboons; second baboon, 500-700 mg/kg, 5 days, from 2.3×10^6", "result": "2.82×10^6"}, {"measurement": "total hemoglobin after treatment", "setting": "anemic juvenile baboons; second baboon, 500-700 mg/kg, 5 days, from 4.6", "result": 6.0, "unit": "g/dL"}, {"measurement": "packed red blood cell volume after treatment", "setting": "anemic juvenile baboons; second baboon, 500-700 mg/kg, 5 days, from 14.5%", "result": 20.2, "unit": "%"}, {"measurement": "white blood cell counts, maximum", "setting": "anemic juvenile baboons; second baboon, 500-700 mg/kg, 5 days, from 8,700", "result": "14,300"}, {"measurement": "platelet counts, high", "setting": "anemic juvenile baboons; second baboon, 500-700 mg/kg, 5 days, from 328,000", "result": "486,000"}, {"measurement": "adverse effects", "setting": "anemic juvenile baboons; third baboon, 5 days", "result": "No adverse affects were observed"}, {"measurement": "fetal globin protein synthesis after treatment", "setting": "anemic juvenile baboons; third baboon, after 5 days, from 0%", "result": "6.2 % of non-alpha globin"}, {"measurement": "fetal hemoglobin producing reticulocytes after treatment", "setting": "anemic juvenile baboons; third baboon, same dose, after 5 days (FIG. 8), from 0%", "result": 10, "unit": "%"}]}
{"smiles": "CC(=Cc1ccccc1)C(=O)O", "note": "[α-methyl cinnamic acid]", "values": [{"measurement": "system A transport of amino acids (3H-MAIB uptake)", "setting": "[1]", "result": "do not significantly alter"}]}
{"smiles": "O=C(O)CSc1ccccc1", "note": "[thiophenoxyacetic acid]", "values": [{"measurement": "increase in proportions of colonies surviving G418", "setting": "[2]", "result": 300, "unit": "%"}, {"measurement": "increase in proportions of colonies surviving G418", "setting": "[2]; no colonies without compounds", "result": "three-fold"}]}
{"smiles": "CCCC(=O)OCC(COC(=O)CCC)OC(=O)CCC", "note": "[tributyrin]", "values": [{"measurement": "gamma globin expression after treatment", "setting": "anemic juvenile baboons; intravenous 3 days, 500 to 750 mg/kg per day, from 0%", "result": "about 2.2 % of total non-alpha globin expression"}, {"measurement": "fetal reticulocytes after treatment", "setting": "anemic juvenile baboons; intravenous 3 days, 500 to 750 mg/kg per day, from 10%", "result": 14, "unit": "%"}]}
{"smiles": "CC(CO)C(N)=O", "note": "(stereo not shown) [MHPP, 2 methyl-3-hydroxypropionamide, reference compound]", "values": [{"measurement": "Gamma Increase", "setting": "[3]; 0.05 mM", "result": 2.0, "unit": "%"}, {"measurement": "Gamma Increase", "setting": "[3]; 1.0 mM", "result": "−3.5", "unit": "%"}, {"measurement": "expression of fetal globin (FIG. 4)", "setting": "[3]; concentrations above 0.25 mM", "result": "decreased the expression of fetal globin"}, {"measurement": "expression of fetal globin (FIG. 4)", "setting": "[3]; concentrations below 0.25 mM", "result": "increased fetal globin expression"}]}
{"smiles": "CCCC(=O)OCC(O)CO", "note": "(stereo not shown) [MB, monobutyrin]", "values": [{"measurement": "induction of fetal globin mRNA in human cells", "setting": "[4]", "result": "significantly increased"}, {"measurement": "Gamma/Alpha (fetal globin mRNA proportional to α-globin mRNA)", "setting": "[4]; untreated 0.46", "result": 0.73}, {"measurement": "Gamma Globin mRNA (increase ↑)", "setting": "[4]; versus untreated", "result": 26, "unit": "% ↑"}, {"measurement": "fetal reticulocytes above basal levels", "setting": "anemic juvenile baboons; intravenous each day, 4 days, 500 to 2,000 mg/kg", "result": 220, "unit": "%"}, {"measurement": "fetal reticulocytes after treatment", "setting": "anemic juvenile baboons; intravenous each day, 4 days, 500 to 2,000 mg/kg, from 12%", "result": 27, "unit": "%"}]}
